Positions of bridges follow the written chain, without caps; N, C: chain ends. Non-standard residues stand in square brackets, D forms with d. Residues, ends and D or L forms follow the SMILES beside them. *: point of attachment. 5FAM = O=C1OC2(c3ccc(O)cc3Oc3cc(O)ccc32)c2ccc(C(=O)*)cc21; βAla = NCCC(=O)O
Experiments:
TmrAB in liposomes = test: ATP hydrolysis assay; format: biochemical, Thermus thermophilus; conditions: TmrAB in liposomes 100 nM; ATP 2 mM; CP^F 1 µM; 10 min 45°C; without CP 1.49, autohydrolysis 0.62
From the text: (§1) In order to investigate the functional impact of CPs, we examined the effect of the CPs on ATP hydrolysis and substrate transport of TmrAB (Figure 3A). We reconstituted TmrAB in liposomes and first assayed the ATPase activity. […] We next set out to investigate peptide transport by TmrAB using a filter-based transport assay. To investigate whether CPs are recognized as substrates by TmrAB, we added fluorescein-labeled CP^Fs and examined ATP-dependent translocation. In contrast to the linear substrate peptide C4F, none of the CP^Fs were transported by TmrAB (Figure 3C). Next, we examined ATP-dependent transport of C4F peptides in the presence and absence of the different CPs.
(§2) Figure 3. CP^Fs are potent inhibitors of ATP turnover and substrate transport. (A) Experimental scheme of ATP hydrolysis and peptide transport by TmrAB. (B) CP^Fs inhibit ATP hydrolysis. TmrAB in liposomes (100 nM) was incubated with ATP (2 mM, traced with [γ^32P]-ATP), and MgCl2 (5 mM) in the presence and absence of CP^Fs (1 µM) for 10 min at 45°C. Autohydrolysis was determined in the absence of TmrAB, and background turnover was conducted in the presence of EDTA (10 mM). Release of [γ^32P] was quantified by thin layer chromatography. (C) CP^Fs are not transported by TmrAB. TmrAB (0.4 µM) reconstituted in liposomes was incubated with C4F peptide (3 µM) or CP^Fs (1 µM) in the presence of ATP/ADP (3 mM) and MgCl2 (5 mM) for 5 min at 45°C. Since CP^Fs were dissolved in maximal 0.5% (v/v) of DMSO, C4F plus 0.5% DMSO served as control. Proteoliposomes were washed on filter plates, and transported peptides were quantified at λex/em = 485/520 nm. (D) Inhibition of substrate translocation. TmrAB in liposomes (0.4 µM) were incubated with C4F peptide (3 µM), ATP/ADP (3 mM), and MgCl2 (5 mM) in the presence and absence of CP^Fs (1 µM) for 15 min at 45°C. Transported peptides were quantified as described in (C). In (B–C), mean values ± SD (n = 3) are shown. Figure 3—source data 1. Source data for Figure 3.
TmrAB reconstituted in liposomes (100 nM) were incubated with ATP (2 mM) traced with [γ^32P]-ATP (Hartmann Analytic), ouabain (1 mM), NaN3 (5 mM), EGTA (50 µM), MgCl2 (3 mM), and CP^Fs (1 µM) for 10 min at 45°C. Autohydrolysis and background hydrolysis were examined in the absence of proteoliposomes or the presence of EDTA (10 mM). Samples were spotted onto polyethyleneimine cellulose plates (Merck Millipore), and thin-layer chromatography was performed with 0.8 M LiCl-acetic acid pH 3.2. Plates were developed overnight on Exposure Cassette-K (Bio-Rad) and evaluated on Personal Molecular Imager System (Bio-Rad). Data were recorded in triplicates and the mean values ± SD (n = 3) are shown.

[1] = target: T1, TmrAB reconstituted in liposomes (Thermus thermophilus, UniProt Q72J04+Q72J05); test: Filter-based transport assay, CP^Fs tested as substrates; format: biochemical; conditions: TmrAB 0.4 µM in liposomes, C4F 3 µM or CP^F 1 µM, 5 min 45°C
T1 sequence (Q72J05 1-600): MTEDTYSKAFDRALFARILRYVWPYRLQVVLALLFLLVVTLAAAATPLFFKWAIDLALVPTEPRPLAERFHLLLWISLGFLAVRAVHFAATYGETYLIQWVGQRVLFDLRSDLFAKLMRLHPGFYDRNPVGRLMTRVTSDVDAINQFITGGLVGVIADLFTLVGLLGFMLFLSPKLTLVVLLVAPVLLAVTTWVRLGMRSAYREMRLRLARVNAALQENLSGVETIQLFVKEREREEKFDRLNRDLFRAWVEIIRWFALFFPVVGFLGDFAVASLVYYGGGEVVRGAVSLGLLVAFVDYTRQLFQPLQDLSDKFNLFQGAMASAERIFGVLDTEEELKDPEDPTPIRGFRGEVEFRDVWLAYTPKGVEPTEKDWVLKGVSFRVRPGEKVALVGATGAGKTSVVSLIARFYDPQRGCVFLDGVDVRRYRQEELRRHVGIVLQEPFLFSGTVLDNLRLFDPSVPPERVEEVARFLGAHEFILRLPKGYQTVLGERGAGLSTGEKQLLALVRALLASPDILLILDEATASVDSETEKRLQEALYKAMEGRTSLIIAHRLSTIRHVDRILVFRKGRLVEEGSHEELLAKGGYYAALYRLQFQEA
T1 sequence (Q72J04 1-578): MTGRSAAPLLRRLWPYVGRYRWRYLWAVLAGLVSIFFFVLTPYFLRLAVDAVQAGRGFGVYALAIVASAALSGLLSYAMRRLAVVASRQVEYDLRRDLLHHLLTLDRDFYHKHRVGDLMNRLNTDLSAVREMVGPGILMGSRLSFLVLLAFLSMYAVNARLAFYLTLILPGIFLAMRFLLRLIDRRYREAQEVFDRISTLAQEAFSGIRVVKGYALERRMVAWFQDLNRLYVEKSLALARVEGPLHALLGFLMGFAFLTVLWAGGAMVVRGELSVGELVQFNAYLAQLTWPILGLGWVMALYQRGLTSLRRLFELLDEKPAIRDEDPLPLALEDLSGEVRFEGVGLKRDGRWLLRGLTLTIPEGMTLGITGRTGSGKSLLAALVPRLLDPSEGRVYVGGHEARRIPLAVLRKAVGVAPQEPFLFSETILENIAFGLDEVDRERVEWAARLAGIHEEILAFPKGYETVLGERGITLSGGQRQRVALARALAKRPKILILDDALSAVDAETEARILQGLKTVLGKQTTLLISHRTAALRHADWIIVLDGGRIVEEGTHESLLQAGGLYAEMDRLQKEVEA
From the text: as §1, §2
TmrAB in liposomes (0.4 µM) were incubated with ATP/ADP (3 mM), MgCl2 (5 mM), C4F peptide (3 µM), and CP^Fs (1 µM) for 15 min at 45°C. […] Proteoliposomes were solubilized by adding SDS (1% [v/v]) in transport buffer for 10 min at 20°C. Transported peptides were quantified at λex/em = 485/520 nm using a microplate reader (CLARIOstar, BMG LABTECH).

| Structure (SMILES) | ATP hydrolysis (TmrAB in liposomes) | Transported peptide ([1]; ADP 3 mM (background)) | Transported peptide ([1]; ATP 3 mM) |
| --- | --- | --- | --- |
| CC(C)C[C@@H]1NC(=O)[C@H](Cc2ccccc2)NC(=O)CNC(=O)[C@H](CO)NC(=O)[C@H](Cc2ccccc2)NC(=O)[C@H](CC(=O)O)NC(=O)[C@@H]2CCCN2C(=O)[C@H]([C@@H](C)O)NC(=O)[C@@H](Cc2ccc(O)cc2)NC(=O)CSC[C@@H](C(=O)NCC(=O)N[C@@H](CO)C(=O)NCCC(=O)NCCC(=O)N[C@@H](CCCNC(=N)N)C(=O)N[C@@H](CCCCNC(=O)c2ccc3c(c2)C(=O)OC32c3ccc(O)cc3Oc3cc(O)ccc32)C(N)=O)NC(=O)[C@H](C)NC(=O)[C@H](CC(N)=O)NC(=O)[C@H](CCCNC(=N)N)NC(=O)[C@H](CC(C)C)NC(=O)[C@H](Cc2ccccc2)NC(=O)[C@H](C)NC1=O [CP12] ({CH2CO}-[dY]TPDFSGFLAFLRNACGS[βAla][βAla]RK(5FAM)-NH2; thioether N-16) | 0.37 mmol Pi (g*min)^-1 | 0.55 µmol·g/min | 0.44 µmol·g/min |
| CC(C)[C@@H]1NC(=O)[C@H](Cc2ccccc2)NC(=O)[C@@H]2CCCN2C(=O)[C@H](CC(N)=O)NC(=O)[C@H](Cc2c[nH]c3ccccc23)NC(=O)[C@H](C(C)C)NC(=O)[C@H](Cc2ccc(O)cc2)NC(=O)[C@H](Cc2ccccc2)NC(=O)[C@@H](Cc2ccc(O)cc2)NC(=O)CSC[C@@H](C(=O)NCC(=O)N[C@@H](CO)C(=O)NCCC(=O)NCCC(=O)N[C@@H](CCCNC(=N)N)C(=O)N[C@@H](CCCCNC(=O)c2ccc3c(c2)C(=O)OC32c3ccc(O)cc3Oc3cc(O)ccc32)C(N)=O)NC(=O)[C@H](CCCCN)NC(=O)[C@H](Cc2ccccc2)NC1=O [CP14] ({CH2CO}-[dY]FYVWNPFVFKCGS[βAla][βAla]RK(5FAM)-NH2; thioether N-12; C-terminus assumed) | 0.39 mmol Pi (g*min)^-1 | 0.25 µmol·g/min | 0.26 µmol·g/min |
| CC[C@H](C)[C@@H]1NC(=O)[C@H](Cc2c[nH]c3ccccc23)NC(=O)[C@H](CC(N)=O)NC(=O)[C@H](C)NC(=O)[C@H](CO)NC(=O)[C@@H]2CCCN2C(=O)[C@H](CC(=O)O)NC(=O)[C@@H](Cc2ccc(O)cc2)NC(=O)CSC[C@@H](C(=O)NCC(=O)N[C@@H](CO)C(=O)NCCC(=O)NCCC(=O)N[C@@H](CCCNC(=N)N)C(=O)N[C@@H](CCCCNC(=O)c2ccc3c(c2)C(=O)OC32c3ccc(O)cc3Oc3cc(O)ccc32)C(N)=O)NC(=O)[C@H]([C@@H](C)O)NC(=O)[C@H](CC(C)C)NC(=O)[C@H](CC(C)C)NC(=O)[C@H](C(C)C)NC(=O)[C@H](CC(C)C)NC1=O [CP13] ({CH2CO}-[dY]DPSANWILVLLTCGS[βAla][βAla]RK(5FAM)-NH2; thioether N-14; C-terminus assumed) | 0.39 mmol Pi (g*min)^-1 | 0.28 µmol·g/min | 0.33 µmol·g/min |
| CC[C@H](C)[C@@H]1NC(=O)[C@H]([C@@H](C)O)NC(=O)[C@H](CC(C)C)NC(=O)[C@H](Cc2c[nH]c3ccccc23)NC(=O)[C@H](Cc2ccccc2)NC(=O)[C@H](CC(N)=O)NC(=O)[C@H](CCC(=O)O)NC(=O)[C@H](CC(C)C)NC(=O)[C@H](CS)NC(=O)[C@H](Cc2c[nH]cn2)NC(=O)[C@H](CO)NC(=O)[C@@H](Cc2ccc(O)cc2)NC(=O)CSC[C@@H](C(=O)NCC(=O)N[C@@H](CO)C(=O)NCCC(=O)NCCC(=O)N[C@@H](CCCNC(=N)N)C(=O)N[C@@H](CCCCNC(=O)c2ccc3c(c2)C(=O)OC32c3ccc(O)cc3Oc3cc(O)ccc32)C(N)=O)NC(=O)[C@H](CC(C)C)NC1=O [CP6] ({CH2CO}-[dY]SHCLENFWLTILCGS[βAla][βAla]RK(5FAM)-NH2; thioether N-14) | 0.54 mmol Pi (g*min)^-1 | 0.38 µmol·g/min | 0.33 µmol·g/min |

— paper PMC8116058, “De novo macrocyclic peptides dissect energy coupling of a heterodimeric ABC transporter by multimode allosteric inhibition” (eLife, 2021)
